The test system of one data set is uninfected MT2 cells. As to the kind of experiment: Compound cytotoxicity, XTT-based colorimetric assay. The data set is classed as cell-based. Particulars: day 4, XTT. In outline: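 Run under the antiviral-assay protocol but without virus. Viability was read on day 4 and CC50 values were derived from the readout.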
(Tetrazolium assays rely on reduction of a dye to a coloured formazan, in cell work by metabolically active cells.)

Data set [1] deals with recombinant NL4-3 virus (nef section replaced with Renilla luciferase gene) in MT-2 cells. As to the kind of experiment: HIV cell culture assay (antiviral activity, luciferase readout). Type of data set: cell-based. As to conditions: serial dilutions of compound. In outline:
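Test compound in serial dilution was present while MT-2 cells were infected for 4–5 days with recombinant NL4-3 virus made in 293T cells. Antiviral activity was quantified as Renilla luciferase activity, read with a live-cell substrate. EC50 came from the median-effect equation.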

[2] abbreviates: MT-2 cells infected for 4-5 days with recombinant NL4-3 Renilla luciferase virus.

In general, CC50 refers to the concentration at which the toxic effect on the cells reaches its halfway point. Lower therefore signals harm at low concentration. What is called EC50 is the concentration giving half of the maximal effect. As for `Cn1nc(NS(C)(=O)=O)c2c(Cl)ccc(-n3c([C@H](Cc4cc(F)cc(F)c4)NC(=O)Cn4nc(C(F)F)c5c4C(F)(F)[C@@H]4C[C@H]54)nc4cc(-c5ccccc5F)ccc4c3=O)c21` (single isomer, unassigned) [Example 6], the CC50 in the data set on uninfected MT2 cells is > 1000 nM. The EC50 in data set [1] (setting [2]) was 0.3 nM.
Take `CC(C(=O)N[C@@H](Cc1cc(F)cc(F)c1)c1nc2cc(-c3ccccc3F)ccc2c(=O)n1-c1ccc(Cl)c2c(NS(=O)(=O)C3CC3)nn(CC(F)F)c12)n1ccc(C2CC2)n1` (single isomer, unassigned) [Example 138]: in the data set on uninfected MT2 cells, the CC50 is > 500 nM. In addition, in data set [1] (setting [2]), the EC50 amounted to 9 nM.
`Cn1nc(NS(C)(=O)=O)c2c(Cl)ccc(-n3c([C@H](Cc4cc(F)cc(F)c4)NC(=O)Cn4nc(C(F)F)c5c4C(F)(F)[C@@H]4C[C@H]54)nc4cc(-c5ccccc5F)ccc4c3=O)c21` (single isomer, unassigned) [Example 5]: the CC50 in the data set on uninfected MT2 cells is > 1000 nM. Moreover, the EC50 in data set [1] (Renilla, NL43, MT-2 cells infected for 4-5 days with recombinant NL4-3 Renilla luciferase virus) is 62.7 nM.
Consider `O=C(Cn1nc(C(F)F)c2c1C(F)(F)[C@@H]1C[C@H]21)N[C@@H](Cc1cc(F)cc(F)c1)c1nc2cc(-c3ccccc3F)ccc2c(=O)n1-c1ccc(Cl)c2c(NS(=O)(=O)C3CC3)nn(CC(F)F)c12` (atropisomer, axis not shown; (aR)) [Example 8, N-((S)-1-(3-(4-chloro-3-(cyclopropanesulfonamido)-1-(2,2-difluoroethyl)-1H-indazol-7-yl)-7-(2-fluorophenyl)-4-oxo-3,4-dihydroquinazolin-2-yl)-2-(3,5-difluorophenyl)ethyl)-2-((3bS,4aR)-3-(difluoromethyl)-5,5-difluoro-3b,4,4a,5-tetrahydro-1H-cyclopropa[3,4]cyclopenta[1,2-c]pyrazol-1-yl)acetamide], for which, in the data set with uninfected MT2 cells, the CC50 is > 1000 nM. In data set [1] (setting [2]), the EC50 amounted to 0.613 nM.

(Values after patent US11505543B2, “4-oxo-3,4-dihydroquinazoline compounds as inhibitors of human immunodeficiency virus replication” (VIIV HEALTHCARE UK (NO.5) LIMITED, priority 2018, dated 2022).)
